Results published in publication PMC9917099, “The Mycotoxin Patulin Inhibits the Mitochondrial Carnitine/Acylcarnitine Carrier (SLC25A20) by Interaction with Cys136 Implications for Human Health” (International Journal of Molecular Sciences, 2023).
Numbering of substitutions follows the chain as printed. Where “and” joins values, the source holds several entries; their conditions need not be identical. Equal entries are not always repeated.

Legend:
[1] = molecular target: T1, native mitochondrial carnitine/acylcarnitine carrier (CAC, SLC25A20) (Rattus norvegicus, UniProt P97521); assay: [3H]-carnitine/carnitine antiport in proteoliposomes reconstituted with native CAC extracted from rat liver mitochondria; type: biochemical; conditions: PAT incubated 30 min, 0.1 mM [3H]carnitine 10 min, read-out: IC50 of CAC inhibition
T1 construct: the native protein extracted from rat liver mitochondria; from tissue; host or cells: rat liver mitochondria (Triton X-100 extract)
T1 sequence (P97521 1-301): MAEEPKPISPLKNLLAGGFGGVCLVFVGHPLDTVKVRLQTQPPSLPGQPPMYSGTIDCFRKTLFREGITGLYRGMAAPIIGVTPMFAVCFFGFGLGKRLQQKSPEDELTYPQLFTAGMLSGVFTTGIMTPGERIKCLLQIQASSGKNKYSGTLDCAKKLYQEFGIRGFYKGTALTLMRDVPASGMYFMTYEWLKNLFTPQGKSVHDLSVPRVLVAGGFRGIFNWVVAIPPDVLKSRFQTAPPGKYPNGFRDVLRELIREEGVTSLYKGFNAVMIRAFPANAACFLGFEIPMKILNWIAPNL
Procedure: For studying the effect of PAT on the native mitochondrial CAC, a dose–response analysis on the rat liver-extracted mitochondria was performed. Aliquots of the mitochondrial extract (0.3 mg of total proteins) were reconstituted in liposomes and incubated for 30 min with several concentrations of PAT before starting the transport assay as [^3H]-carnitine/carnitine antiport (see Materials and Methods).
Figure 1 Effect of Patulin on the native carnitine/acylcarnitine carrier (CAC). (A) Dose-response analysis of proteoliposomes reconstituted with the CAC extracted from rat liver mitochondria (0.3 mg of total proteins) and incubated with PAT at the indicated concentrations for 30 min, before measuring the transport activity by adding 0.1 mM [^3H] carnitine for 10 min as described in Materials and Methods. The percentage of residual activity compared to control, without PAT treatment, is reported. […]
(§1) For the transport assay, 550 μL of proteoliposomes were passed through a Sephadex G-75 column in order to remove the external substrate. […] After finishing the transport reaction, the external radiolabel substrate was removed by gel filtration chromatography (Sephadex G-75), and the intraliposomal radioactivity was measured by liquid scintillation. Transport was measured at 25 °C. […] Transport rates were measured in 10 min, i.e., within the initial linear range of the time course.

[2] = molecular target: T2, rat CAC mutant C23V/C58V/C89S/C155V/C283S (Rattus norvegicus, UniProt P97521, C155V/C23V/C283S/C58V/C89S); assay: Carnitine antiport in proteoliposomes, CAC mutant containing only C136; type: biochemical
T2 construct: made in house; host or cells: E. coli C0214 (pMW7, inclusion bodies)
T2 sequence (P97521 1-301 C23V/C58V/C89S/C155V/C283S): T1 sequence (P97521 1-301) with C23V, C58V, C89S, C155V, C283S
Procedure: To shed light on the interaction between PAT and CAC and verify if specific Cys residues were involved, transport experiments on the recombinant rat and human WT CAC and CAC’s rat Cys mutants were performed. As in the case of the native protein, transport activities were measured as [^3H]-carnitine/carnitine antiport in proteoliposomes. […] The PAT inhibition of the WT recombinant protein was only slightly greater compared to the native protein, although compounds and other molecular systems that affect the mycotoxin binding to the native CAC were absent (see above). For identifying the residues involved in the PAT interaction, site-directed Cys mutants were tested for inhibition (Figure 2). […]
Figure 2 Dose-response analysis of the PAT inhibition of the CAC recombinant proteins. […] The data are expressed as a percentage of the controls (no PAT addition) and are means ± SD of three independent experiments. […]
as §1

O=C1C=C2C(=CCOC2O)O1 (centres unmarked) [PAT, 4-hydroxy-4H-furo [3,2c] pyran-2 [6H] -one]
IC50 [1]: 55 µM and ~50 µM
IC50 [2]: comparable to the WT
